In the NIST ThermoML archive (doi:10.1016/j.tca.2015.06.017):

Assay: xn = mol fraction of the nth substance listed
Conditions: 303.15 K, Liquid, Vibrating tube method

CC(C)CCl [1-chloro-2-methylpropane] + CCCCCCC
mass density [kg/m3]
Conditions	100 kPa	2000 kPa	5000 kPa	7000 kPa	10000 kPa	20000 kPa	30000 kPa	40000 kPa	50000 kPa
x2 = 0.0531	851.74	853.98	857.38	859.64	862.96	873	882.09	890.44	898.25
x2 = 0.1023	839.04	841.31	844.68	846.92	850.21	860.17	869.13	877.39	885.12
x2 = 0.2009	815.06	817.39	820.73	822.92	826.15	835.94	844.8	852.91	–
x2 = 0.3009	792.69	794.98	798.27	800.42	803.62	813.23	821.91	829.87	–
x2 = 0.3981	772.58	774.81	778.06	780.18	783.33	792.77	801.3	809.15	–
x2 = 0.4986	753.31	755.48	758.67	760.74	763.84	773.13	781.52	789.24	–
x2 = 0.5998	735.29	737.44	740.59	742.6	745.64	754.8	763.03	770.61	–
x2 = 0.7038	718.11	720.22	723.33	725.32	728.31	737.29	745.43	752.83	–
x2 = 0.7993	703.45	705.49	708.59	710.55	713.5	722.32	730.33	737.59	–
x2 = 0.8995	689.05	691.14	694.18	696.12	699.03	707.71	715.6	722.73	–
x2 = 0.9507	682.07	684.19	687.22	689.13	692.03	700.65	708.5	715.55	–
